# Assay results from US20260060987A1, “METHODS AND COMPOSITIONS FOR RADIOPROTECTION AND MITIGATION OF RADIATION-INDUCED INJURY USING KINASE INHIBITORS” (Incyte Corporation, priority 2024, published 2026).
# Molecular target: PI3Kδ (Homo sapiens, UniProt O00329)
# Assay: PI3Kδ inhibition, IC50 at 1 mM ATP
# Assay type: biochemical
# Sequence of PI3Kδ (O00329 whole entry): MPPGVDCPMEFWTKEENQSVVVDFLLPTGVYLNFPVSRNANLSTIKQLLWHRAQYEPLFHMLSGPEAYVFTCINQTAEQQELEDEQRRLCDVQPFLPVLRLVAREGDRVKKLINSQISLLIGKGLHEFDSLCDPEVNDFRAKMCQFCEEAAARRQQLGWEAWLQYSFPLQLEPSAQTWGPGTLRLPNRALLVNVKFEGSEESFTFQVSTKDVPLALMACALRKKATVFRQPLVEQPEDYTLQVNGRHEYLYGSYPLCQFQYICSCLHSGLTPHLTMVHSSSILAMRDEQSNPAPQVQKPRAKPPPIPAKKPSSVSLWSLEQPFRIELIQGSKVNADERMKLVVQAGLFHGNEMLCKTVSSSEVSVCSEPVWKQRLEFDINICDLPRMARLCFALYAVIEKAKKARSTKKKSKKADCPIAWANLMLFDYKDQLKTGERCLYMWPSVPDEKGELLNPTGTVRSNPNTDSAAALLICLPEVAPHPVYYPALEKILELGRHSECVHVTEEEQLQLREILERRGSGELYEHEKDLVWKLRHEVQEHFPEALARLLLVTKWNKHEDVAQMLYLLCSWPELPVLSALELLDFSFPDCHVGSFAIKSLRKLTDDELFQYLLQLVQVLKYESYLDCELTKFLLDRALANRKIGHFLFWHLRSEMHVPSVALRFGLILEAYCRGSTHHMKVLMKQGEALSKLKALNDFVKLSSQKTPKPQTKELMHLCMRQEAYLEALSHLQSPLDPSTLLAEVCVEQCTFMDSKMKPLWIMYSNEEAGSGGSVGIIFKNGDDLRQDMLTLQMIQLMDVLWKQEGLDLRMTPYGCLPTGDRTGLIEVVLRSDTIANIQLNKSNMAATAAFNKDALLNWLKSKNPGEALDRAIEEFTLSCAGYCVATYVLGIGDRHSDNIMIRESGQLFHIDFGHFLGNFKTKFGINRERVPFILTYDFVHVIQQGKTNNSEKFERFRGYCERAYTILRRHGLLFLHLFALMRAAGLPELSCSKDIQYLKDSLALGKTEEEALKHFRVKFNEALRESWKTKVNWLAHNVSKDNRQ
# Sequence of PI3Kδ (P27986 whole entry partner): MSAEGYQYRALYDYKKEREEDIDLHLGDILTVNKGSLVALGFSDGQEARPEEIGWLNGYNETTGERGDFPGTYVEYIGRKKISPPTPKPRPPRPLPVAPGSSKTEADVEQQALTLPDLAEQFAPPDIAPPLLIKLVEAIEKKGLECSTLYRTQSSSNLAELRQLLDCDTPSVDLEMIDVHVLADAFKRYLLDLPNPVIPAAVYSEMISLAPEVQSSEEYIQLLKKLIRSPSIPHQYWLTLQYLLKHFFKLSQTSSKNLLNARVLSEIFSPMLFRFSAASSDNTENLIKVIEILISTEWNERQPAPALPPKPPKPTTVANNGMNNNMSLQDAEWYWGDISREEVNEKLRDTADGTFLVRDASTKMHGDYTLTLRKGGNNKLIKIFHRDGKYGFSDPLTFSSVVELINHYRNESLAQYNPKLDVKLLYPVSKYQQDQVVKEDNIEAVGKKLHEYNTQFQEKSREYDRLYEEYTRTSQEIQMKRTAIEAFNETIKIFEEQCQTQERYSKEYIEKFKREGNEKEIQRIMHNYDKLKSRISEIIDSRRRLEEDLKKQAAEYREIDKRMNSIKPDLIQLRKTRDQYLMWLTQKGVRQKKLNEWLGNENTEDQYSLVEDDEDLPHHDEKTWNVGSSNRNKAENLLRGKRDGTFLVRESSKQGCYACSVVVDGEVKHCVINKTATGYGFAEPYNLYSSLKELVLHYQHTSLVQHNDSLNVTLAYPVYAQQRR
smiles,measurement,value
"CCOc1c([C@H](C)n2nc(C)c3c(N)ncnc32)cc(Cl)c(F)c1[C@@H]1CNC(=O)C1 [parsaclisib, (R)-4-(3-((S)-1-(4-amino-3-methyl-1H-pyrazolo[3,4-d]pyrimidin-1-yl)ethyl)-5-chloro-2-ethoxy-6-fluorophenyl) pyrrolidin-2-one]",IC50,1 nM
